Results from patent US20220395522A1, “Methods of Use of Glucosamine for Increasing Nitrogen Retention” (TSI Bioproducts (Xuzhou) Co., Ltd., priority 2021, published 2022).

Columns and labels:
fecal microbiota = test: Fecal microbiota analysis (16S rRNA), alpha and beta diversity; type: in vivo, human
Description: To determine significant differences between bacterial alpha diversity metrics (the measure of microbiome diversity within a single sample), a paired t-test was used between alpha diversity values of different sample groups (p<0.05). Significant differences in beta diversity (the measure of similarity or dissimilarity of multiple samples) between groups was determined using the qiime diversity beta-group-significance command in QIIME2 as well, which performs pairwise Permutational Multivariate Analysis of Variance (PERMANOVA) tests on beta diversity distance matrices (p<0.05). Differential abundance of taxa between sample groups were evaluated using Multivariate Analysis by Linear Models (MaAsLin) in R version 4.0.2 using the Maaslin2 command in the Maaslin2 R library on rarified taxonomy data generated by QIIME2 (p<0.05). Additional evaluation of differential abundance of taxa was performed using Analysis of Composition of Microbiomes (ANCOM) using the qiime composition ancom command after collapsing the feature table to the family level (level 5) using the qiime taxa collapse command on QIIME2. Data visualization was performed using the ggplot2 package, with data frame manipulation commands from the dplyr package, within the tidyverse collection of R packages.
Stool specimens were collected at four time points throughout the entire study protocol. The first two samples were collected before and after the first supplementation period while the final two samples were collected before and after the second supplementation period. All stool specimens were collected no more than 24-hours prior to that study participant being scheduled to complete their laboratory visit. All samples were immediately frozen after sample collection by the study participants. […]
A fecal microbiota analysis was further conducted. […] The Qubit Fluorometer (Thermo Fisher Scientific, San Francisco, Calif.) was used to quantify PCR product concentrations prior to combining the PCR products in equal quantities for purification with the Wizard SV Gel and PCR Cleanup kit (Promega, Madison, Wis.). […]

[1] = Body mass, heart rate and blood pressure in randomized, double-blind, placebo-controlled, cross-over supplementation study; type: in vivo, human; settings: GLU condition, mean ± SD
Description: A randomized, double-blind, placebo-controlled, cross-over study design was conducted on healthy males and females. Participants were instructed to report to a laboratory after observing an overnight (8 to 10-hour) fast while maintaining adequate hydration. Participants were asked to abstain from exercise and avoid alcohol and caffeine consumption for 12 hours prior to each study visit. All participants first completed an initial eligibility visit during which a comprehensive medical history, consent document, and body mass index (BMI) assessment were completed. Results from the BMI assessment was used to finalize eligibility. Once deemed eligible, participants were provided with supplies to begin the study protocol.
The remainder of the study consisted of two identical patterns of testing with the exception of what supplementation protocol was followed. FIG. 1 provides a flowchart of the experimental design. Prior to each visit, food and physical activity logs were completed encompassing four days prior to the scheduled laboratory visit. The four days consisted of two weekend days and two weekdays. Each participant reported to the laboratory for a baseline measurement of height, weight, heart rate, and blood pressure. During this visit, participants completed the Bristol Stool Chart and Gastrointestinal Symptom Rating Scale (GSRS) to assess bowel habits and potential gastrointestinal symptoms. Participants were given instructions on how to collect a stool sample and were instructed to do so within 24 hours of each planned study visit. At the completion of this study visit, participants were provided with their first assigned supplement (either PLA [placebo] or GLU [glucosamine]) and instructed to begin supplementation 21 days prior to their second visit. Participants were instructed to collect their second stool sample on the day of their final supplementation dose. On the morning of their second study visit, participants reported to the laboratory after following identical pre-study instructions as previous visits (i.e., fasting, abstention from caffeine and exercise). Study participants again completed assessments for height, weight, heart rate, blood pressure, and questionnaires regarding their bowel habits and gastrointestinal symptoms while also providing their second stool sample and turning in completed food and activity logs. A washout period lasting a minimum of 14 days and a maximum of 21 days separated each phase of the crossover as shown in FIG. 1.
In a double-blind manner, a glucosamine supplement (GLU) or a maltodextrin placebo (PLA) was distributed in identical opaque capsules to all participants. On a daily basis, participants were instructed to ingest three capsules, each containing 1,000 mg of glucosamine hydrochloride (GlucosaGreen®, TSI Group Ltd. MT, USA) or a placebo (maltodextrin) identical in appearance for a total of 21 days. Each visit at the beginning of the supplementation regimen (Visits 1 and 4, respectively; See FIG. 1) occurred on or before the first day of supplementation while the final day of supplementation occurred the day before each participant's follow-up visit for that study period (Visits 2 and 4, respectively). Participants were instructed to ingest the supplement 15-30 minutes before breakfast with eight fluid ounces of cold water. In the case of a missed dose, participants were instructed to consume the missed dose as soon as possible with a meal. […] The dose of maltodextrin used in the following examples was two to five-fold lower, respectively, than these investigations.
Height and weight were measured for every participant without shoes and in minimal clothing using a standardized wall-mounted stadiometer (Tanita, model #HR-200, Tokyo, Japan) and a self-calibrating digital scale (Tanita, model #BWB-627A Class III, Tokyo, Japan). Prior to heart rate and blood pressure measurements, participants rested in a seated position for five minutes. […]

[2] = Post 21 days, 3 x 1,000 mg/day oral

## Cl.N[C@H]1C(O)O[C@H](CO)[C@@H](O)[C@@H]1O (stereo partly drawn) [GLU, glucosamine hydrochloride]
Fecal microbiota; Post vs Pre, paired t-test p>0.05
  Other alpha diversity measures (Observed OTUs or Shannon Evenness): not significantly altered
Fecal microbiota; compared to baseline, PERMANOVA p>0.05
  Changes in beta-diversity (unweighted Unifrac distances): not significantly different
Fecal microbiota; following GLU consumption compared to baseline, paired t-test p=4.59E-03
  Alpha diversity of fecal bacterial communities, Faith's Phylogenetic Diversity (PD): significantly decreased
[1]; [2]
  Diastolic BP: 77.0 ± 9.8 mmHg
  Heart Rate: 63.1 ± 8.1 beats/min
  Systolic BP: 119.4 ± 10.8 mmHg
[1]; Pre (baseline)
  Diastolic BP: 73.9 ± 9.3 mmHg
  Heart Rate: 66.8 ± 7.7 beats/min
  Systolic BP: 121.7 ± 14.2 mmHg
